Measurements taken from patent US20240294551A1 (AMGEN INC., priority 2022, published 2024).
Where two headings read alike, the source gives them in different places.

Experiments:
[1] = target: His-tagged KRAS G12D protein (Homo sapiens (Human), UniProt P01116, G12D); experiment: KRAS G12D TR-FRET Assay; format: binding
Procedure, shortened: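 Each incubation ran at room temperature: enzyme with compound for 30 minutes, peptide for one hour, and detection reagents (0.4 nM europium anti-6×His, 5 nM streptavidin-d2) for one hour more. Protein and peptide stocks were each diluted to 20 nM before addition.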

[2] = target: GDP-bound KRAS protein (aa 1-169), containing both G12D and C118A amino acid substitutions (Homo sapiens (Human), UniProt P01116, C118A/G12D); experiment: KRAS G12D Coupled Nucleotide Exchange Assay; format: biochemical
GDP-bound KRAS protein (aa 1-169), containing both G12D and C118A amino acid substitutions, sequence (P01116 other isoform, or with tags, fused parts or gaps G12D/C118A): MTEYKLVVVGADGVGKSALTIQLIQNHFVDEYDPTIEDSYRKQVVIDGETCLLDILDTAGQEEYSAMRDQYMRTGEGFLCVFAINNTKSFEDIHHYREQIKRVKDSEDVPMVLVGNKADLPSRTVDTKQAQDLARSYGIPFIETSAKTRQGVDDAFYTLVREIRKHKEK

[3] = system: Phosphorylation of ERK1/2 in AsPC-1 cells; experiment: Phospho-ERK1/2 MSD Assay; format: cell-based, human; settings: Homo sapiens, ASPC1, 2 h
Experimental: AsPC-1 (ATCC® CRL-1682™) cells were cultured in RPMI 1640 Medium (ThermoFisher Scientific 11875093) containing 10% fetal bovine serum (ThermoFisher Scientific 16000044) and 1× penicillin-streptomycin-glutamine (ThermoFisher Scientific 10378016). Sixteen hours prior to compound treatment, AsPC-1 cells were seeded in 96-well cell culture plates at a density of 25,000 cells/well and incubated at 37° C., 5% CO2. A compound dose-response titration was diluted in growth media, added to appropriate wells of a cell culture plate, and then incubated at 37° C., 5% CO2 for 2 hours. Following compound treatment, cells were washed with ice-cold Dulbecco's phosphate-buffered saline, no Ca^2+ or Mg^2+ (ThermoFisher Scientific 14190144), and then lysed in RIPA buffer (50 mM Tris-HCl pH 7.5, 1% Igepal, 0.5% sodium deoxycholate, 150 mM NaCl, and 0.5% sodium dodecyl sulfate) containing protease inhibitors (Roche 4693132001) and phosphatase inhibitors (Roche 4906837001). Phosphorylation of ERK1/2 in compound-treated lysates was assayed using Phospho-ERK1/2 Whole Cell Lysate kits (Meso Scale Discovery K151DWD) according to the manufacturer's protocol. Assay plates were read on a Meso Scale Discovery Sector Imager 6000, and data were analyzed using a 4-parameter logistic model to calculate IC50 values.

[4] = read-out: KRAS G12D Binding IC50
[5] = read-out: KRAS G12D Coupled Exchange IC50
[6] = read-out: 2 h p-ERK (AsPC-1 cells), IC50

His-tagged KRAS G12D protein, sequence (P01116 other isoform, or with tags, fused parts or gaps G12D): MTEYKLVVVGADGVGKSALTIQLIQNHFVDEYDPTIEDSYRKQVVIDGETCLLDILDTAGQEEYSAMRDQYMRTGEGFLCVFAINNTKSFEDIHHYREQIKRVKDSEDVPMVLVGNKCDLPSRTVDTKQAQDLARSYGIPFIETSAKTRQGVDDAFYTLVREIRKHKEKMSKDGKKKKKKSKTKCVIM

Structure (SMILES)	IC50 [1, 4]	IC50 [2, 5]	IC50 [3, 6]	IC50 ([1]; TR-FRET, read-out: KRAS G12D Binding)	IC50 ([2]; 2 hours compound pre-incubation, read-out: KRAS G12D Coupled Exchange)	IC50 ([3]; read-out: 2 h p-ERK (AsPC-1 cells))
Cc1cc2[nH]ncc2c2c1CCC[C@H](F)C(=O)N[C@@H]1CCCN(C1)c1nc(OC[C@@]34CCCN3C[C@H](F)C4)nc3c(F)c-2ncc13 (mixture of isomers) [Example 49, (17R)-14,30-difluoro-24-(((2R,7aS)-2-fluorotetrahydro-1H-pyrrolo[1,2-a]pyrrol-7a(5H)-yl)methoxy)-9-methyl-5,6,16,21,23,25,29-heptaazahexacyclo[24.3.1.1~17,21~.0~2,10~.0~3,7~.0~22,27~]hentriaconta-1(30),2,4,7,9,22,24,26,28-nonaen-15-one]	0.007 µM	0.005 µM	0.116 µM	–	–	–
Cc1cc2[nH]ncc2c2c1CCCC(=O)OCC1(O)CCCN(C1)c1nc(OC[C@@]34CCCN3C[C@H](F)C4)nc3c(F)c-2ncc13 (mixture of isomers) [Example 103]	0.031 µM	0.032 µM	1.99 µM	–	–	–
Fc1c2ncc3c(nc(OC[C@@]45CCCN4C[C@H](F)C5)nc13)N1CC(COCCCCc3c(Cl)cc4[nH]ncc4c3-2)CC(F)(F)C1 (some centres unmarked) [Example 229]	0.027 µM	0.012 µM	0.342 µM	–	–	–
O=C1CCCc2c(F)ccc3cccc(c23)-c2ncc3c(nc(OC[C@@]45CCCN4C[C@H](F)C5)nc3c2F)N2CCCC[C@H](C2)N1 [Example 69, (16R)-23,32-difluoro-8-(((2R,7aS)-2-fluorotetrahydro-1H-pyrrolo[1,2-a]pyrrol-7a(5H)-yl)methoxy)-3,7,9,11,17-pentaazahexacyclo[20.7.1.1~2,6~.1~11,16~.0~5,10~.0~26,30~]dotriaconta-1(29),2(32),3,5,7,9,22,24,26(30),27-decaen-18-one]	0.03 µM	0.02 µM	1.14 µM	–	–	–
Cc1cc2[nH]ncc2c2c1CCCOC(=O)O[C@@H]1CCCCN(C1)c1nc(OC[C@@H]3C[C@@H](F)CN3C)nc3c(F)c-2ncc13 [Example 92, (26R)-32-fluoro-4-(((2S,4R)-4-fluoro-1-methyl-2-pyrrolidinyl)methoxy)-18-methyl-23,25-dioxa-1,3,5,9,14,15-hexaazahexacyclo[24.4.1.1~6,10~.0~2,7~.0~11,19~.0~12,16~]dotriaconta-2,4,6,8,10(32),11,13,16,18-nonaen-24-one]	0.013 µM	0.011 µM	0.317 µM	–	–	–
CC12CN(CCO1)c1nc(OC[C@@]34CCCN3C[C@H](F)C4)nc3c(F)c(ncc13)-c1c(c(Cl)cc3[nH]ncc13)CCCc1nc2co1 (mixture of isomers) [Example 380]	–	–	–	0.155 µM	0.029 µM	1.69 µM
O=C1CCCc2c(F)ccc3cccc(c23)-c2ncc3c(nc(OC[C@@]45CCCN4C[C@H](F)C5)nc3c2F)N2CCC[C@H](C2)N1 [Example 68, (15R)-22,31-Difluoro-8-(((2R,7aS)-2-fluorotetrahydro-1H-pyrrolo[1,2-a]pyrrol-7a(5H)-yl)methoxy)-3,7,9,11,16-pentaazahexacyclo[19.7.1.1˜2,6˜.1˜11,15˜.0˜5,10˜.0˜25,29˜]hentriaconta-1(28),2(31),3,5,7,9,21,23,25(29),26-decaen-17-one 2,2,2-trifluoroacetate]	0.033 µM	0.016 µM	0.931 µM	–	–	–
CN1C(=O)COCC[C@@H]2CCc3cc4[nH]ncc4c(c32)-c2ncc3c(nc(OC[C@@]45CCCN4C[C@H](F)C5)nc3c2F)N2CCC[C@@H]1C2 [Example 279, (15R,22S)-34-fluoro-8-(((2R,7aS)-2-fluorotetrahydro-1H-pyrrolo[1,2-a]pyrrol-7a(5H)-yl)methoxy)-16-methyl-19-oxa-3,7,9,11,16,28,29-heptaazaheptacyclo[20.9.1.1~2,6~.1~11,15~.0~5,10~.0~25,32~.0~27,31~]tetratriaconta-1(31),2(34),3,5,7,9,25(32),26,29-nonaen-17-one]	0.333 µM	0.071 µM	–	–	–	–
O=C1OCCCc2c(Cl)cc3[nH]ncc3c2-c2ncc3c(nc(OC[C@@]45CCCN4C[C@H](F)C5)nc3c2F)N2CC[C@@H]3CCN1[C@@H]3C2 [Example 176, (28R,32S)-18-chloro-33-fluoro-4-(((2R,7aS)-2-fluorotetrahydro-1H-pyrrolo[1,2-a]pyrrol-7a(5H)-yl)methoxy)-23-oxa-1,3,5,9,14,15,25-heptaazaheptacyclo[23.5.2.1~6,10~.0~2,7~.0~11,19~.0~12,16~.0~28,32~]tritriaconta-2,4,6,8,10(33),11,13,16,18-nonaen-24-one]	0.287 µM	0.179 µM	–	–	–	–
Cc1cc2[nH]ncc2c2c1CCCCC(=O)N1CC3CCN(CC3C1)c1nc(OC[C@@]34CCCN3C[C@H](F)C4)nc3c(F)c-2ncc13 (mixture of isomers) [Example 57]	0.221 µM	0.194 µM	–	–	–	–

The next lines start with the values.

IC50 [1, 4]	IC50 [2, 5]	IC50 [3, 6]	IC50 ([1]; TR-FRET, read-out: KRAS G12D Binding)	IC50 ([2]; 2 hours compound pre-incubation, read-out: KRAS G12D Coupled Exchange)	IC50 ([3]; read-out: 2 h p-ERK (AsPC-1 cells))	Structure (SMILES)
–	–	0.213 µM	–	–	–	Cc1cc2[nH]ncc2c2c1CCCOC(=O)N1CC[C@@H]3CCN(C[C@@H]31)c1nc(OC[C@@]34CCCN3C[C@H](F)C4)nc3c(F)c-2ncc13 (mixture of isomers) [Example 75, (28S,32R)-33-fluoro-4-(((2R,7aS)-2-fluorotetrahydro-1H-pyrrolo[1,2-a]pyrrol-7a(5H)-yl)methoxy)-18-methyl-23-oxa-1,3,5,9,14,15,25-heptaazaheptacyclo[23.5.2.1~6,10~.0~2,7~.0~11,19~.0~12,16~.0~28,32~]tritriaconta-2,4,6,8,10(33),11,13,16,18-nonaen-24-one]
0.019 µM	0.012 µM	0.346 µM	–	–	–	Cc1cc2[nH]ncc2c2c1[C@H]1C[C@@H]1COC(=O)O[C@@H]1CCCN(C1)c1nc(OC[C@@]34CCCN3C[C@H](F)C4)nc3c(F)c-2ncc13 (racemic) [Example 114]
0.004 µM	0.003 µM	0.0278 µM	–	–	–	Cc1cc2[nH]ncc2c2c1CCOC(=O)OC[C@H]1CN(CCO1)c1nc(OC[C@@]34CCCN3C[C@H](F)C4)nc3c(F)c-2ncc13 [Example 218]
0.028 µM	0.017 µM	0.926 µM	–	–	–	C[C@H]1CCOC[C@H]2CN(CCO2)c2nc(OC[C@@]34CCCN3C[C@H](F)C4)nc3c(F)c(ncc23)-c2c(c(Cl)cc3[nH]ncc23)C1 [Example 252, (12R,17R)-9-chloro-30-fluoro-24-(((2R,7aS)-2-fluorotetrahydro-1H-pyrrolo[1,2-a]pyrrol-7a(5H)-yl)methoxy)-12-methyl-15,18-dioxa-5,6,21,23,25,29-hexaazahexacyclo[24.3.1.1~17,21~.0~2,10~.0~3,7~.0~22,27~]hentriaconta-1(30),2,4,7,9,22,24,26,28-nonaene]
–	–	0.59 µM	–	–	–	O=C1OCCc2c(Cl)cc3[nH]ncc3c2-c2ncc3c(nc(OC[C@@]45CCCN4C[C@H](F)C5)nc3c2F)N2CCC[C@@]3(C[C@H](CO3)O1)C2 [Example 314, (1R,4R)-11-chloro-33-fluoro-25-(((2R,7aS)-2-fluorotetrahydro-1H-pyrrolo[1,2-a]pyrrol-7a(5H)-yl)methoxy)-2,5,7-trioxa-14,15,20,24,26,28-hexaazaheptacyclo[26.3.1.1~1,4~.1~19,23~.0~10,18~.0~13,17~.0~22,27~]tetratriaconta-10,12,15,17,19(33),20,22,24,26-nonaen-6-one]
